From US12344863B2, “Method of producing stem cell-derived endothelial cells and uses thereof” (Emory University, priority 2016, dated 2025)

Legend:
[1] = test system: hESCs (H9); experiment: Mesodermal differentiation of hPSCs with CHIR99021 (qRT-PCR, flow cytometry); format: cell-based, human
Experimental: A clinically compatible stepwise protocol was developed which follows endothelial development (FIG. 1A). To develop a fully defined system, KnockOut™ Serum Replacement substituted for animal serum and feeder cells. As a first step, two coating materials were compared (collagen and Matrigel™), and induced differentiation of hPSCs into the mesodermal lineage using CHIR99021, a GSK3β inhibitor which mimics Wnt activation. hESCs (H9) were plated onto dishes coated with 0.01% collagen or 10% Matrigel™ and were cultured for 3, 5, and 7 days in hESC medium with or without 3 µM CHIR99021. […] Flow cytometry analyses confirmed that the percentage of KDR+ cells was highest (51.2±4.3%) under these conditions.
The hESCs (H1, H7, and H9) and hiPSCs (BJ1 and PGP1 obtained from Dr. George Daley) were cultured in mTeSR™ 1 (STEMCELL Technologies) on 5% matrigel at 37° C., 5% CO2. For directed differentiation, enzymatically dissociated clumps of hPSCs (lower than passage 60) were cultured on 0.01% collagen-coated plates in DMEMF-12 including 20% Serum Replacement (SR) with or without addition of specific differentiation factors for 7-10 days. hPSCs were cultured on collagen coated plates for an additional 14 days.

[2] = test system: mesodermally differentiated hPSCs; experiment: Endothelial differentiation of mesodermally differentiated hPSCs with or without DLL4 (qRT-PCR, flow cytometry); format: cell-based, human
Excerpt: Flow cytometric analyses also confirmed increases in PECAM1, CDH5, and VWF (FIG. 1D) and decreases in PTPRC (CD45), CD34, KIT (CD117), and PROM1 (CD133). […] Similar results were found in three hESC lines (H1, H7, and H9) and two hiPSC lines (BJ1 and PGP1) by flow cytometry and qRT-PCR. […] Immunocytochemistry confirmed expression of EC markers VWF and CDH5 as well.

With Cc1cnc(-c2cnc(NCCNc3ccc(C#N)cn3)nc2-c2ccc(Cl)cc2Cl)[nH]1 [CHIR99021, 6-[[2-[[4-(2,4-dichlorophenyl)-5-(5-methyl-1H-imidazol-2-yl)-2-pyrimidinyl]amino]ethyl]amino]-3-pyridinecarbonitrile] the “percentage of KDR+ cells” value ([1]; hESCs (H9), collagen coating, 3 µM CHIR99021, 3 days, flow cytometry) was 51.2±4.3%, the “POU5F1 (OCT4) expression” value ([1]; qRT-PCR) was “reduced” and the “expression of definitive ectoderm (SOX1) and endoderm (FOXA2) markers” value ([1]; qRT-PCR) was “not significantly changed”. The “T (Brachyury) and KDR transcripts” value ([1]; qRT-PCR, collagen coating and CHIR99021 treatment for 3 days, vs Matrigel, 5 and 7 days, no CHIR99021) was “most highly expressed”.

For “DLL4: polypeptide comprising a mature human or mammalian peptide sequence encoded by a DLL4 gene; a Notch ligand”, the “PECAM1, CDH5, and VWF by flow cytometry” value ([2]; day 14, with vs without DLL4) was “increases”, the “PTPRC (CD45), CD34, KIT (CD117), and PROM1 (CD133) by flow cytometry” value ([2]; day 14, with vs without DLL4) was “decreases” and the “KDR, PECAM1, CDH5 and VWF expression” value ([2]; qRT-PCR, day 14, addition of DLL4) was “further increased”.
